Entries after “also recorded” stand apart in the source; their conditions may differ.

Results on three compounds are retold here after patent US20250145579A1, “PROCESS FOR MANUFACTURING AN LPXC ANALOG” (Zoetis Services LLC, priority 2022, published 2025).

The nature of the series: Relative stability of isolated solid forms (slurry experiments, XRD). As to conditions: for relative stability of the solid form: as isolated solids. Type of series: physicochemical. How it is done:
A number of polymorphic forms of (R)-4-(4-(4-(2H-1,2,3-triazol-2-yl)phenyl)-2-oxopyridin-1 (2H)-yl)-N-hydroxy-2-methyl-2-(methylsulfonyl)-butanamide were prepared (Forms 1, 2 and 3) as API slurries in a number of protic and aprotic solvents. With the exception of acetonitrile, methyl ethyl ketone, and tetrahydrofuran, the use of aprotic solvents like ethyl, butyl or propyl acetate result in Form 1. With the exception of water, the use of protic solvents such as butyl, propyl and ethyl alcohol favor the formation of Form 2. An unstable Form 3 was also noted. The presence of water in alcohols increased the rate of Form 2 isolation from solution. […] The three forms were structurally related and were solvated and/or hydrated.
The relative stability of the three isolated solid forms appears to be different as suspensions compared to isolated solids. […] As suspensions, the relative stability of these solvates is dependent on the solvent or solvent/water mixture that is present.
It is very likely that these three solvated solids are nearly isostructural and differ in subtle ways that are linked to the way solvent or water are packed into the solvation sites in the structure. There is an increasing complexity of the XRD patterns with Form 1 being the most complex (most peaks) and Form 3 having the fewest peaks. This pattern complexity (F1>F2>F3) parallels the apparent stability of the dried isolated samples. Out of 384 solvent mixtures, a total of 90 samples were mixtures rather than pure phase Forms.
The X-ray diffractograms were obtained on a Scintag X1 powder diffractometer equipped with a Peltier cooled solid state detector. Data were collected between 4 and 40° 20 using a 0.03° step size and data acquisition time was 45 to 60 minutes for sample characterization. Data collection for solids isolated from the bulk of the small scale preliminary experiments was at a 0.04° step size over 15 minutes between 7 and 37 degrees 2-theta. Copper Kα radiation (λ=1.54056 Å) was utilized and the tube voltage and amperage were set to 45 kV and 40 mA, respectively. […]

With `C[C@@](CCn1ccc(-c2ccc(-n3nccn3)cc2)cc1=O)(C(=O)NO)S(C)(=O)=O` [Form 1, (R)-4-(4-(4-(2H-1,2,3-triazol-2-yl)phenyl)-2-oxopyridin-1 (2H)-yl)-N-hydroxy-2-methyl-2-(methylsulfonyl)-butanamide], the “relative stability of the solid form” value is recorded as “most stable form”. As for `C[C@@](CCn1ccc(-c2ccc(-n3nccn3)cc2)cc1=O)(C(=O)NO)S(C)(=O)=O` [Form 2, (R)-4-(4-(4-(2H-1,2,3-triazol-2-yl)phenyl)-2-oxopyridin-1 (2H)-yl)-N-hydroxy-2-methyl-2-(methylsulfonyl)-butanamide], the “relative stability of the solid form” value is on record as “meta-stable relative to Form 1”. `C[C@@](CCn1ccc(-c2ccc(-n3nccn3)cc2)cc1=O)(C(=O)NO)S(C)(=O)=O` [Form 3, (R)-4-(4-(4-(2H-1,2,3-triazol-2-yl)phenyl)-2-oxopyridin-1 (2H)-yl)-N-hydroxy-2-methyl-2-(methylsulfonyl)-butanamide]: for the setting “by XRD patterns of isolated solids from slurries”, the “stability of the solid form / form conversion” value was “unstable; also recorded: meta-stable and converts to Form 2”.
